According to US10239884B2, “Coelenterazine compounds and uses thereof” (KEIO UNIVERSITY, priority 2017, dated 2019):

Columns and labels:
[1] = target: T1, native Renilla Luciferase (RLuc) (Renilla reniformis, UniProt P27652); test: Bioluminescence intensity, Renilla Luciferase luminescence system; type: biochemical; conditions: 2 μM substrate in PBS pH 7.4, cell lysate, maximum intensity over 1 second, relative value
T1 construct: expressed in transfected cells; host or cells: COST cells (so in the source)
T1 sequence (P27652 1-311): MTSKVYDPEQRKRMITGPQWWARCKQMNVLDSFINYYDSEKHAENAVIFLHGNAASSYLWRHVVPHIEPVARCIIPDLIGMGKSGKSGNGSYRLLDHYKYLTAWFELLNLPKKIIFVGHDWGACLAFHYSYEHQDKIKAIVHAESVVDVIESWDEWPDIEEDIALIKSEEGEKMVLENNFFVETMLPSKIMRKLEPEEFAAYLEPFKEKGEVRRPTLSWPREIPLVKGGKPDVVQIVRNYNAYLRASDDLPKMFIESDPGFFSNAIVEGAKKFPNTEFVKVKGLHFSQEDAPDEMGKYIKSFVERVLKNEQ
Text: The luciferases were respectively expressed in COST cells using an expression vector (pcDNA3.1(+), commercially available from Invitrogen) comprising the sequence encoding native Renilla Luciferase (RLuc) (trade name pGL4.75, commercially available from Promega) or an expression vector (trade name pcDNA3.1(+), commercially available from Invitrogen) comprising the sequence encoding a RLuc derivative RLuc8 or RLuc8.6-535 (Reference: Loening, A. M. et al., Nat. Methods, 2007, 4, 641-643.). The cells were lysed using a Renilla Luciferase Lysis Buffer (E291A, Promega), and the lysate was directly used as an enzyme solution. […] Bioluminescence was measured according to the protocol of Renilla Luciferase Assay System (Cat. No. E 2810; Promega). The luminescent substrate was dissolved in methanol to prepare a 2 mM solution. The solution was diluted to 2 μM with PBS buffer (pH 7.4), and the diluted solution was used as a substrate solution. […] The luminescence intensity was measured with a Berthold Lumat LB 9507 for 1 second, and indicated by the maximum luminescence intensity (I). The luminescence intensity of the native CTZ by RLuc8 was set to be 1.0, and the other bioluminescence intensities were normalized to be relative values to that of native CTZ.

[2] = target: T2, RLuc8 (Renilla reniformis, UniProt P27652, A143M/A55T/C124A/K136R/M185V/M253L/S130A/S287L); type: biochemical; conditions: 2 μM substrate in PBS pH 7.4, cell lysate, maximum intensity over 1 second, relative value
T2 construct: expressed in transfected cells; host or cells: COST cells (so in the source)
Text: (§1) The luciferases were respectively expressed in COST cells using an expression vector (pcDNA3.1(+), commercially available from Invitrogen) comprising the sequence encoding native Renilla Luciferase (RLuc) (trade name pGL4.75, commercially available from Promega) or an expression vector (trade name pcDNA3.1(+), commercially available from Invitrogen) comprising the sequence encoding a RLuc derivative RLuc8 or RLuc8.6-535 (Reference: Loening, A. M. et al., Nat. Methods, 2007, 4, 641-643.). The cells were lysed using a Renilla Luciferase Lysis Buffer (E291A, Promega), and the lysate was directly used as an enzyme solution. […] Bioluminescence was measured according to the protocol of Renilla Luciferase Assay System (Cat. No. E 2810; Promega). The luminescent substrate was dissolved in methanol to prepare a 2 mM solution. The solution was diluted to 2 μM with PBS buffer (pH 7.4), and the diluted solution was used as a substrate solution. To 200 μL of the substrate solution, 4 μL of the cell lysate containing RLuc, RLuc 8 or RLuc8.6-535 was added to start the luminescent reaction. The luminescence intensity was measured with a Berthold Lumat LB 9507 for 1 second, and indicated by the maximum luminescence intensity (I). The luminescence intensity of the native CTZ by RLuc8 was set to be 1.0, and the other bioluminescence intensities were normalized to be relative values to that of native CTZ.

[3] = target: T2, RLuc8; type: biochemical; conditions: bioluminescence spectrum, ATTO LumiFL
Description: (§2) As in the method for measuring bioluminescence intensity described above, luminescence spectrum was measured according to the protocol of Renilla Luciferase Assay System (Cat. No. E 2810; Promega). The luminescence spectrum was measured using ATTO LumiFL. The maximum luminescence intensities were normalized to be relative values to 1.0 upon determination of the maximum luminescence wavelength.

[4] = target: T3, RLuc8.6-535 (Renilla reniformis, UniProt P27652, A123S/A143M/A55T/C124A/D154M/D162E/E155G/I163L/K136R/M185L/M253L/S130A/S287L); type: biochemical; set-up: expressed in transfected cells; host or cells: COST cells (so in the source); conditions: for RLuc8.6-535 luminescence intensity (%): 2 μM substrate in PBS pH 7.4, cell lysate, maximum intensity over 1 second, relative value
Text: as §1

[5] = target: T3, RLuc8.6-535; type: biochemical; set-up: expressed in transfected cells; host or cells: COST cells (so in the source); conditions: bioluminescence spectrum, ATTO LumiFL
Description: as §2

[6] = tested on: ALuc24; test: Bioluminescence intensity, ALuc system test; type: biochemical; conditions: 1 μM substrate, relative to nCTZ/ALuc34
[7] = tested on: ALuc30; test: Bioluminescence intensity, ALuc system test; type: biochemical; conditions: 1 μM substrate, relative to nCTZ/ALuc34
[8] = tested on: ALuc16; test: Bioluminescence intensity, ALuc system test; type: biochemical; conditions: 1 μM substrate, relative to nCTZ/ALuc34
Description: (§3) The cells were lysed using a Renilla Luciferase Buffer (E291A; Promega), and the lysate was directly used as an enzyme solution. As luminescent substrates, native CTZ (Nanolight technology) and 6-Al2N3-CTZ (Example 17) were used. Bioluminescence was measured according to the protocol of a Renilla Luciferase Assay System (Cat. No. E2810; Promega). The luminescent substrate was dissolved in methanol to prepare a 1 mM solution. The solution was diluted to 1 μM with Promega buffer, and the diluted solution was used as a substrate solution. To 40 μL of the substrate solution, 10 μL of the cell lysate containing RLuc8.6-535, ALuc16, ALuc22, ALuc23 or ALuc34 was added for starting the luminescent reaction. Using Fujifilm LAS-4000, the luminescence intensities were measured 0 and 20 minutes after the start of the enzyme reaction. Further, from the results of bioluminescence intensity shown in FIG. 3, the bioluminescence intensities were summarized in Tables 4-1 and 4-2 below, where the luminescence intensities were normalized to be the relative values of nCTZ/ALuc34 (100%).

[9] = tested on: ALuc22; test: Bioluminescence intensity, ALuc system test; type: biochemical; conditions: 1 μM substrate, relative to nCTZ/ALuc34
Description: as §3

[10] = tested on: ALuc23; test: Bioluminescence intensity, ALuc system test; type: biochemical; conditions: 1 μM substrate, relative to nCTZ/ALuc34
Description: as §3

[11] = tested on: ALuc34; test: Bioluminescence intensity, ALuc system test; type: biochemical; conditions: for luminescence intensity (%): 1 μM substrate, relative to nCTZ/ALuc34
Description: as §3

[12] = target: T3, RLuc8.6-535; test: Bioluminescence intensity, ALuc system test; type: biochemical; set-up: expressed in transfected cells; conditions: 1 μM substrate, relative to nCTZ/ALuc34
Description: as §3

[13] = target: T4, NanoLuc (Oplophorus gracilirostris, UniProt Q9GV45, A31E/A60N/A81I/F95D/I117V/K70R/L54V/L99Q/M102K/N193R/P142E/Q151K/Q38R/Q45L/V71I/Y165I); conditions: combined with NanoLuc; cited from earlier work
T4 construct: literature Promega

[14] = tested on: GLuc; test: Bioluminescence intensity, ALuc system test; type: biochemical; conditions: 0 minutes after the start of measurement, 1 μM substrate, relative to nCTZ/ALuc34
[15] = target: T5, Renilla Luciferase (RLuc) (Renilla reniformis, UniProt P27652); conditions: CTZ as luminescent substrate; cited from earlier work
T5 sequence (P27652 1-311): T1 sequence (P27652 1-311)

[16] = tested on: artificial bioluminescent enzyme (ALuc); conditions: same wavelength range (480-500 nm); cited from earlier work
[17] = ALuc24, 0 minutes after the start of measurement
[18] = ALuc24, 20 minutes after the start of measurement
[19] = ALuc30, 0 minutes after the start of measurement
[20] = ALuc30, 20 minutes after the start of measurement
[21] = ALuc16, 0 minutes after the start of measurement
[22] = ALuc16, 20 minutes after the start of measurement
[23] = ALuc22, 0 minutes after the start of measurement
[24] = ALuc22, 20 minutes after the start of measurement
[25] = ALuc23, 0 minutes after the start of measurement
[26] = ALuc23, 20 minutes after the start of measurement
[27] = ALuc34, 0 minutes after the start of measurement
[28] = ALuc34, 20 minutes after the start of measurement
[29] = RLuc8.6-535, 0 minutes after the start of measurement

T2 sequence (P27652 whole entry A55T/C124A/S130A/K136R/A143M/M185V/M253L/S287L): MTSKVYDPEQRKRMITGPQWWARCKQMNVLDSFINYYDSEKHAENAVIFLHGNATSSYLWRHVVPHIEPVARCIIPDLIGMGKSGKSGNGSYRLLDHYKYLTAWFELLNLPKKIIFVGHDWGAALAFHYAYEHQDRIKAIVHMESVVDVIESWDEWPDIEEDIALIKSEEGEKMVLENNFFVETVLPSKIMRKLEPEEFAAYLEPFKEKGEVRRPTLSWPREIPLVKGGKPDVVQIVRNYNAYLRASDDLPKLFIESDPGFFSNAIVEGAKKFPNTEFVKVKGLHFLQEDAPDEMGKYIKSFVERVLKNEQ
T3 sequence (P27652 whole entry A55T/A123S/C124A/S130A/K136R/A143M/D154M/E155G/D162E/I163L/M185L/M253L/S287L): as the sequence (P27652 whole entry A55T/C124A/S130A/K136R/A143M/M185V/M253L/S287L) above, with A123S, D154M, E155G, D162E, I163L, V185L counted along it
T4 sequence (Q9GV45 28-196 with tags or gaps with the stated changes limits assumed): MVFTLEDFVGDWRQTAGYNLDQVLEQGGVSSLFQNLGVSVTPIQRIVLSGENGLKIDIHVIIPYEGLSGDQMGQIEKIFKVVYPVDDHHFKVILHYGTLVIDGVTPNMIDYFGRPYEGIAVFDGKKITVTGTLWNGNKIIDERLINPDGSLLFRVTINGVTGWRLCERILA

Row | SMILES | RLuc luminescence intensity (%) [1] | RLuc8 luminescence intensity (%) [2] | RLuc8 half-width (nm) [3] | RLuc8 maximum luminescence wavelength (nm) [3] | RLuc8.6-535 luminescence intensity (%) [4] | RLuc8.6-535 half-width (nm) [5] | RLuc8.6-535 maximum luminescence wavelength (nm) [5] | luminescence intensity (%) [6, 17] | luminescence intensity (%) [6, 18] | luminescence intensity (%) [7, 19] | luminescence intensity (%) [7, 20] | luminescence intensity (%) [8, 21] | luminescence intensity (%) [8, 22] | luminescence intensity (%) [9, 23] | luminescence intensity (%) [9, 24] | luminescence intensity (%) [10, 25] | luminescence intensity (%) [10, 26] | luminescence intensity (%) [11, 27] | luminescence intensity (%) [11, 28] | luminescence intensity (%) [12, 29] | other results
1 | O=c1c(Cc2ccc(O)cc2)nc2c(Cc3ccccc3)[nH]c(-c3ccc(OCCCO)cc3)cn1-2 [6-Alkyl3OH-CTZ] | 0.11% | 9.74% | [60] nm | 414 nm | 75.3% | [56] nm | 415 nm |  |  |  |  |  |  |  |  |  |  |  |  |  | luminescence intensity higher than that of DeepBlueC/RLuc8 ([4]; with RLuc8.6-535, versus conventional blue-shifted RLuc luminescence system (DeepBlueC/RLuc8)): 32 fold
2 | [N-]=[N+]=NCCOc1ccc(-c2cn3c(=O)c(Cc4ccc(O)cc4)nc-3c(Cc3ccccc3)[nH]2)cc1 [Example 6-Al2N3-CTZ] |  |  |  |  |  |  |  | 0.56% | 0.17% | 0.83% | 0.28% | 1.72% | 0.60% | 1.32% | 0.46% | 2.53% | 1.00% | 3.45% | 1.27% | 0.01% | luminescence intensity higher than that of native CTZ/ALuc34 ([11]; with ALuc34, immediately after the start of the measurement): about 3.4 fold
3 | O=c1c(Cc2ccco2)nc2c(Cc3ccccc3)[nH]c(-c3ccccc3)cn1-2 [Furimazine] |  |  |  |  |  |  |  |  |  |  |  |  |  |  |  |  |  |  |  |  | luminescence intensity higher than that of the firefly luciferase luminescence system [13]: about 100 fold
4 | Oc1ccc(Cc2nc3c(Cc4ccccc4)nc(-c4ccc(O)cc4)cn3c2O)cc1 [Native-CTZ, coelenterazine] | 10.7% | 80.5% | [98] nm | 484 nm | 100% | [111] nm | 538 nm | 0.40% | 0.31% | 0.28% | 0.21% | 0.43% | 0.42% | 0.65% | 0.42% | 0.58% | 0.58% | 1.0% | 1% | 0.05% | luminescence intensity (%) [14]: 0.08%; quantum yield of the RLuc luminescence system [15]: 0.05; luminescence intensity higher than that of the conventional RLuc luminescence system [16]: about 50 fold; luminescence intensity (%) ([12]; RLuc8.6-535, 20 minutes after the start of measurement): 0.05%
